In patent US6677435B2, “Prodrug activation using catalytic antibodies” (The Scripps Research Institute, priority 1999, dated 2004):

Tests used:
antibody 38C2 = assay: Kinetic analysis of antibody 38C2-catalyzed prodrug activation (RP-HPLC); type: biochemical, mouse
Procedure: All antibody reactions were carried out in PBS (pH 7.4) at 37° C. in microfuge tubes. […] Kinetic data were derived from Lineweaver-Burk plots. […] Topoisomerase I and II inhibitor doxorubicin was chosen as a model compound for this prodrug activation concept because its structure activity relationship is well characterized and it has been used previously in ADEPT systems (Niculescu-Duvaz, I. & Springer, C. J. (1997) Adv. Drug Delivery Rev. 26, 151-172). Doxorubicin is a drug approved for cancer therapy that suffers from misdirected toxicity. […] The tertiary aldol was chosen as the first reaction since no known natural enzyme catalyzes this particular type of retro-aldol reaction. […] Typically 38C2 is highly enantioselective, however, under the conditions studied, the reaction proceeded to completion indicative of loss of enantioselectivity and complete activation of the prodrug. According to a pharmacokinetic analysis of ADEPT systems, low kcat values combined with high Km values are expected to increase the tumor to blood ratio of the free drug, leading to a reduction in peripheral toxicity (Yuan, J., Baxter, L. T. & Jain, R. K. (1991). Cancer Res. 51, 3119-3130). […] To this end, both the masking linker and catalytic antibody are being optimized.

[1] = system: LIM1215 human colon carcinoma cells; assay: Cell growth inhibition assay (lactate dehydrogenase colour reaction), LIM1215; type: cell-based; conditions: for IC50: Homo sapiens, LIM1215
Procedure: Stock solutions of 5 mM doxorubicin and prodoxorubicin in DMF, respectively, were stored at 4° C. For cell growth inhibition assays, 250-μM dilutions of doxorubicin and prodoxorubicin in PBS (pH 7.4) were freshly prepared from the 5 mM stock solutions and further diluted in cell culture medium to yield 10 nM to 25 μM solutions. […] Stock solutions of 1 mM camptothecin and procamptothecin in DMF, respectively, were stored at 4° C. For cell growth inhibition assays, 100-μM dilutions of camptothecin and procamptothecin in PBS (pH 7.4) were freshly prepared from the 1 mM stock solutions and further diluted in cell culture medium to yield 10 nM to 1 μM solutions. Cells grown in culture flasks were trypsinized, washed with PBS, resuspended in cell culture medium, and reduced to a single cell suspension by passing through a 18 G needle. After counting, the cells were plated at a density of 5×10^3 (HT29) or 1×10^4 (LIM1215, LNCap) cells/well in 96-well tissue culture plates and maintained in culture as described above. Drugs were diluted to a final concentration range of 10 nM to 25 μM in 100 μl 10% fetal bovine serum in RPMI 1640 and added to the cells 24 hours after plating. […] After drug addition, the cells were maintained at 37° C. in 5% CO2for 3 to 5 days (72 to 120 hours). Prior to the quantitative cell growth inhibition assay, the cell density was qualitatively analyzed by microscopy. […] The cells were then washed with 150 μl PBS (pH 7.5) and incubated with 100 μl of 9% (v/v) Triton-X 100 (Sigma, St. Louis, Mo.) for 45 minutes at 37° C. The supernatant was then transferred to a 96-well V-shaped plate and centrifuged to remove cell debris. […] For quantification, 50 μl aliquots were transferred to another 96-well plate and the color was read at 490 nm in an ELISA plate reader. The absorbance data were converted to percent cell density with the untreated controls being 100% and the background of the color reaction being 0%.

[2] = system: HT29 human colon carcinoma cells; assay: Cell growth inhibition assay (lactate dehydrogenase colour reaction), HT29; type: cell-based
Excerpt: (§1) Human colon carcinoma cell lines HT29 and LIM1215 were kindly provided by Dr. Lloyd J. Old from The Ludwig Institute for Cancer Research in New York. Human prostate cancer cell line LNCap was purchased from American Type Culture Collection (Manassas, Va.). All cell lines were maintained in RPMI 1640 medium (Hyclone, Logan, Utah) supplemented with 10% fetal bovine serum (Life Technologies, Gaithersburg, Md.) and antibiotic-antimycotic reagents (Life Technologies) containing penicillin, streptomycin, and amphotericin B. The cell lines were cultivated in culture flasks at 37° C. in a humidifying incubator in an atmosphere of 5% CO2.
(§2) Stock solutions of 5 mM doxorubicin and prodoxorubicin in DMF, respectively, were stored at 4° C. For cell growth inhibition assays, 250-μM dilutions of doxorubicin and prodoxorubicin in PBS (pH 7.4) were freshly prepared from the 5 mM stock solutions and further diluted in cell culture medium to yield 10 nM to 25 μM solutions. Methyl vinyl ketone was purchased from Aldrich (Milwaukee, Wis.). Stock solutions of 1 mM camptothecin and procamptothecin in DMF, respectively, were stored at 4° C. […] Prior to the quantitative cell growth inhibition assay, the cell density was qualitatively analyzed by microscopy. This visual evaluation always matched the result of the quantitative analysis. […] For quantification, 50 μl aliquots were transferred to another 96-well plate and the color was read at 490 nm in an ELISA plate reader. The absorbance data were converted to percent cell density with the untreated controls being 100% and the background of the color reaction being 0%.
(§3) The antiproliferative effects of drug and prodrug were monitored by quantifying the cell growth in the presence of a range of concentrations of doxorubicin and prodoxorubicin, respectively. Three different human cancer cell lines were evaluated, human colon carcinoma cell lines HT29 and LIM1215 and human prostate cancer cell line LNCap. […]

[3] = system: human prostate cancer cell line LNCap; assay: Cell growth inhibition assay (lactate dehydrogenase colour reaction), LNCap; type: cell-based
Excerpt: as §1, §2, §3

[4] = 72 h after drug addition, 50% decrease in cell density vs untreated control
[5] = HT-29, 72 h after drug addition, 50% decrease in cell density vs untreated control

Row | Compound | IC50 [1, 4] | IC50 [2, 5] | IC50 [3, 4] | also measured
1 | CC(=O)CC(C)=O [2,4-pentanedione] |  |  |  | inhibition of 38C2 catalysis of prodoxorubicin cleavage (antibody 38C2): completely inhibited
2 | CC[C@@]1(O)C(=O)OCc2c1cc1n(c2=O)Cc2cc3ccccc3nc2-1 [camptothecin] | 0.1 to 0.25 µM | 0.1 to 0.25 µM | 0.01 to 0.025 µM | 
3 | COc1cccc2c1C(=O)c1c(O)c3c(c(O)c1C2=O)C[C@@](O)(C(=O)CO)C[C@@H]3O[C@H]1C[C@H](N)[C@H](O)[C@H](C)O1 [doxorubicin] | 0.4 µM | 3 µM | 0.4 µM | IC50 ([1]; 120 h after drug addition): 0.4 µM; IC50 ([2]; HT-29, 120 h after drug addition): 2.5 µM; IC50 ([3]; 120 h after drug addition): 0.2 µM
4 | C=CC(C)=O [methyl vinyl ketone] |  |  |  | cell growth inhibition when applied alone ([1]; LIM1215 cells, 120 h, without combination partner): no inhibition of cell growth
